Measured values: ChEMBL document CHEMBL3804765, “One-pot synthesis and sigma receptor binding studies of novel spirocyclic-2,6-diketopiperazine derivatives” (Bioorg Med Chem Lett, 2016)

How the values were obtained:
[1] = target: Sigma non-opioid intracellular receptor 1 (Cavia porcellus, UniProt Q60492); test: Displacement of [3H](+)-pentazocine from Sigma1 receptor in Dunkin Hartley guinea pig brain membrane after 120 mins by liquid scintillation counting analysis
[2] = Displacement of [3H]-DTG from Sigma2 receptor in Sprague-Dawley rat liver membrane after 150 mins by liquid scintillation counting analysis in presence of sigma1 blocker (+)-pentazocine; assay type: cell membranes
[3] = Displacement of [3H]-DTG from Sigma2 receptor in rat brain by liquid scintillation counting analysis in presence of sigma1 blocker (+)-pentazocine; assay type: tissue-based
[4] = Displacement of [3H]-DTG from Sigma2 receptor in Sprague-Dawley rat liver membrane after 150 mins by liquid scintillation counting analysis in presence of sigma1 blocker AC915; assay type: cell membranes

Chain of Sigma non-opioid intracellular receptor 1 (Q60492 whole entry): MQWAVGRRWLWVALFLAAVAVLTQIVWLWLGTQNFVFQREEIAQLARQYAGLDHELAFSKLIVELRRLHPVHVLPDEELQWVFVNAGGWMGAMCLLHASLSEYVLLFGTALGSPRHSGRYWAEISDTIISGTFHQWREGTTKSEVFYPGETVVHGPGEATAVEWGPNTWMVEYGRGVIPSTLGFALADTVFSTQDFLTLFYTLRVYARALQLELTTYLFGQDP

Compound | Ki [1] [nM] | Ki [2] [nM] | Ki [3] [nM] | Ki [4] [nM]
Cc1ccc(C(=O)N2CC(=O)N(C3CCCCC3)C(=O)C23CCCC3)cc1 | 189 | 134 |  | 
CC(C)(C)C1CCC2(CC1)C(=O)N(C1CCCCC1)C(=O)CN2C(=O)c1ccccc1 (stereo unspecified) | 7900 | > 10000 |  | 
Cc1ccccc1NC(=N)Nc1ccccc1C [DITOLYLGUANIDINE] |  | 59.1 |  | 
c1ccc(CN2CCC3(CC2)N=Nc2ccccc2N3)cc1 |  |  | 4220 | 
CC(C)=CCN1CC[C@]2(C)c3cc(O)ccc3C[C@H]1[C@H]2C [(+)-PENTAZOCINE] |  |  |  | 1820
COc1ccc(C(=O)N2CC(=O)N(C3CCCCC3)C(=O)C23CCCCC3)cc1 | 1370 | 5380 |  | 
O=C1CN(C(=O)c2ccccc2)C2(CCN(Cc3ccccc3)CC2)C(=O)N1C1CCCCC1 | 7.2 | 248 |  | 
O=C1CN(C(=O)c2ccccc2)C2(CCCC2)C(=O)N1C1CCCCC1 | 79.8 | 118 |  | 
COc1ccc(C(=O)N2CC(=O)N(C3CCCCC3)C(=O)C23CCCC3)cc1 | 429 | 98 |  | 
COc1ccc(C(=O)N2CC(=O)N(C3CCCCC3)C(=O)C23CCN(Cc2ccccc2)CC3)cc1 | 5.9 | 563 |  | 
Cc1ccc(C(=O)N2CC(=O)N(C3CCCCC3)C(=O)C23CCN(Cc2ccccc2)CC3)cc1 | 11.1 | 134 |  | 
Cc1ccc(C(=O)N2CC(=O)N(C3CCCCC3)C(=O)C23CCCCC3)cc1 | 399 | 2190 |  | 
COc1ccc(C(=O)N2CC(=O)N(C3CCCCC3)C(=O)C23CCC(C(C)(C)C)CC3)cc1 (stereo unspecified) | 9360 | > 10000 |  | 
O=C(CCCN1CCC(O)(c2ccc(Cl)cc2)CC1)c1ccc(F)cc1 [HALOPERIDOL] |  | 54.5 |  | 
COc1ccc(C(=O)N2CC(=O)N(C3CCCCC3)C(=O)C23CCCCC3)c(OC)c1 | 968 | 3170 |  | 
